# Data published in patent US20240116985A1, “STAPLED PEPTIDES AND METHODS THEREOF” (priority 2020, published 2024).
# Like-named read-outs stand apart in the source and are kept apart here.
# Columns and labels:
# CHI Log D procedure = type: physicochemical; settings: for CHI Log D: pH 7.4; for chromatographic logD: pH 7.4, CHI Log D
# [1] = target: T1, full-length B-Catenin (Uniprot ID P35222) (Homo sapiens, UniProt P35222); experiment: Alphascreen binding assay (beta-catenin / biotin-TCF4 10-53)
# T1 construct: 65 nM full-length B-Catenin (Uniprot ID P35222)
# T1 sequence (P35222 1-781): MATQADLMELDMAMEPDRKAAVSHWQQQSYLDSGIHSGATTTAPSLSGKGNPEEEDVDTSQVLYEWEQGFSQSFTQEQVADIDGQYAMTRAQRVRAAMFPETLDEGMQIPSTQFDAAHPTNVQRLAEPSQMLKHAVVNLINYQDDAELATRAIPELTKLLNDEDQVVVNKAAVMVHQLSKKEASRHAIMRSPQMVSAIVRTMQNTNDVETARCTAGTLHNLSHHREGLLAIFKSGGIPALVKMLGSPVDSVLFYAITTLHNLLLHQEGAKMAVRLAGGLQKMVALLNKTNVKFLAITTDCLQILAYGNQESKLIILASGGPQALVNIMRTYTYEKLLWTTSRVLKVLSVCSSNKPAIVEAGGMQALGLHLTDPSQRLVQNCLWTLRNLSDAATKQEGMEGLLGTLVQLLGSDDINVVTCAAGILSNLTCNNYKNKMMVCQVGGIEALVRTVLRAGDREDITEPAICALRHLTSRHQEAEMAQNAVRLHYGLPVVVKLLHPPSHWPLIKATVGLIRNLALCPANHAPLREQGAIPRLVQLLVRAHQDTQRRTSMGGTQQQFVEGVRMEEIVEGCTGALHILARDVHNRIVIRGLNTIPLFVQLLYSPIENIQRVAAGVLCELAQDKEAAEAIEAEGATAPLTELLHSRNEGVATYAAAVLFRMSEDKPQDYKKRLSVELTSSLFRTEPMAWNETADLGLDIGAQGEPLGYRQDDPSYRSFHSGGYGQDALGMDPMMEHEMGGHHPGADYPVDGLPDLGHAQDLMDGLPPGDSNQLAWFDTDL
# Outline: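 AlphaScreen (Ni-chelate beads) competition in 50 mM Tris pH 8.0, 250 mM NaCl with detergents and 0.1% BSA. Peptide titrated 10 uM–5 nM against 65 nM human β-catenin bound to 10 nM biotinylated TCF4 10-53, 15 min then 60 min with beads, both at 20 °C; 1:1 Hill-slope fit.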
# [2] = target: T2, full-length beta-Catenin (Uniprot ID P35222) (Homo sapiens, UniProt P35222); experiment: Fluorescence polarization IC50 (beta-catenin / 5FAM-TCF4 10-53 competition); type: binding
# T2 construct: 10 nM full-length beta-Catenin (Uniprot ID P35222)
# T2 sequence (P35222 1-781): T1 sequence (P35222 1-781)
# [3] = Table E2-1, read-out: beta-Catenin FP IC50
# [4] = fluorescence polarization, beta-catenin, read-out: FP EC50
CHI Log D (CHI Log D procedure),EC50 [1],"IC50 [2, 3]","IC50 [2, 4]",chromatographic logD (CHI Log D procedure),SMILES
1.736,94 nM,696 nM,696 nM,,"CC[C@H](C)[C@@H]1NC(=O)[C@H](CC(=O)O)NC(=O)[C@]2(CC=CCCCC3(CCCC=CCOC(=O)N(C)CCC[C@@](C)(C(=O)N[C@@H](Cc4ccccc4)C(=O)N[C@@H](Cc4c[nH]c5ccccc45)C(=O)N[C@@H](Cc4c[nH]cn4)C(N)=O)NC(=O)[C@H](CCC(N)=O)NC(=O)[C@H](Cc4ccccc4)NC(=O)[C@H](C)NC(=O)[C@H](C)NC(=O)[C@H](CC(=O)O)NC(=O)[C@H](CC(=O)O)NC3=O)NC1=O)CCCN2C(C)=O (stereo partly drawn) [I-190, Ac-PL3-Asp-Ile-B5-Asp-Asp-Ala-Ala-Phe-Gln-SeN-Phe-Trp-His-NH2]"
1.611,156 nM,1600 nM,1600 nM,,"CC[C@H](C)[C@@H]1NC(=O)[C@H](CC(=O)O)NC(=O)[C@]2(CC=CCCCC3(CCCC=CCOC(=O)N(C)CCC[C@@](C)(C(=O)N[C@@H](Cc4ccccc4)C(=O)N[C@@H](Cc4c[nH]c5ccccc45)C(=O)N[C@@H](Cc4c[nH]cn4)C(N)=O)NC(=O)[C@H](CCC(N)=O)NC(=O)[C@H](Cc4ccccc4)NC(=O)[C@H](C)NC(=O)[C@H](C)NC(=O)[C@H](CC(=O)O)NC(=O)[C@H](CC(=O)O)NC3=O)NC1=O)CCCN2C(C)=O (stereo partly drawn) [I-188, Ac-PL3-Asp-Ile-B5-Asp-Asp-Ala-Ala-Phe-Gln-SeN-Phe-Trp-His-NH2]"
1.953,92 nM,3470 nM,3470 nM,,"CC(=O)N1CCC[C@]12CC=CCCCC1(CCCC=CCCCCCC[C@@](C)(C(=O)N[C@@H](Cc3ccccc3)C(=O)N[C@@H](Cc3c[nH]c4ccccc34)C(=O)N[C@@H](CCC(N)=O)C(N)=O)NC(=O)[C@H](C(C)C)NC(=O)[C@H](Cc3ccc(N)cc3)NC(=O)[C@H](C)NC(=O)[C@H](C)NC(=O)[C@H](CC(=O)O)NC(=O)[C@H](CC(=O)O)NC1=O)NC(=O)[C@H](C)NC(=O)[C@H](CC(=O)O)NC2=O (stereo partly drawn) [I-323, Ac-PL3-Asp-Ala-B5-Asp-Asp-Ala-Ala-4AmPhe-Val-S8-Phe-Trp-Gln-NH2]"
2.426,99 nM,2700 nM,2700 nM,,"CC(=O)N1CCC[C@]12CC=CCCCC1(CCCC=CCCCCCC[C@@](C)(C(=O)N[C@@H](Cc3ccccc3)C(=O)N[C@@H](Cc3c[nH]c4ccccc34)C(=O)NC(C)(C)C(N)=O)NC(=O)[C@H](C(C)C)NC(=O)[C@H](Cc3ccccc3)NC(=O)[C@H](C)NC(=O)[C@H](C)NC(=O)[C@H](CCC(=O)O)NC(=O)[C@H](CC(=O)O)NC1=O)NC(=O)[C@H](C)NC(=O)[C@H](CC(=O)O)NC2=O (stereo partly drawn) [I-134, Ac-PL3-Asp-Ala-B5-Asp-Glu-Ala-Ala-Phe-Val-S8-Phe-Trp-Aib-NH2]"
2.074,267 nM,1590 nM,1590 nM,,"CC(=O)N1CCC[C@]12CC=CCCCC1(CCCC=CCCCCCC[C@@](C)(C(=O)N[C@@H](Cc3ccccc3)C(=O)N[C@@H](Cc3c[nH]c4ccccc34)C(=O)N[C@@H](CCC(N)=O)C(N)=O)NC(=O)[C@H](C(C)C)NC(=O)[C@H](Cc3cccc(C(F)(F)F)c3)NC(=O)[C@H](C)NC(=O)[C@H](C)NC(=O)[C@H](CC(=O)O)NC(=O)[C@H](CC(=O)O)NC1=O)NC(=O)[C@H](C)NC(=O)[C@H](CC(=O)O)NC2=O (stereo partly drawn) [I-238, Ac-PL3-Asp-Ala-B5-Asp-Asp-Ala-Ala-3F3MeF-Val-S8-Phe-Trp-Gln-NH2]"
,398 nM,2770 nM,,1.36,"CC[C@H](C)[C@H](NC(=O)[C@H](CC(=O)O)NC(=O)[C@H](C)NC(C)=O)C(=O)N[C@]1(C)CCN(C)C(=O)OCC=CCCCCC[C@@](C)(C(=O)N[C@@H](Cc2ccccc2)C(=O)N[C@@H](Cc2c[nH]c3ccccc23)C(N)=O)NC(=O)[C@H](CCC(N)=O)NC(=O)[C@H](Cc2ccccc2)NC(=O)[C@H](C)NC(=O)[C@H](C)NC(=O)[C@H](CCC(=O)O)NC(=O)[C@H](CC(=O)O)NC1=O [I-148, Ac-Ala-Asp-Ile-RdN-Asp-Glu-Ala-Ala-Phe-Gln-S7-Phe-Trp-NH2]"
2.462,76 nM,533 nM,533 nM,,"CC[C@H](C)[C@@H]1NC(=O)[C@H](CC(=O)O)NC(=O)[C@]2(CC=CCCCC3(CCCC=CCCCCCC[C@@](C)(C(=O)N[C@@H](Cc4ccccc4)C(=O)N[C@@H](Cc4c[nH]c5ccccc45)C(N)=O)NC(=O)[C@H](CCC(N)=O)NC(=O)[C@H](Cc4ccccc4)NC(=O)[C@H](C)NC(=O)[C@H](C)NC(=O)[C@H](CCC(=O)O)NC(=O)[C@H](CC(=O)O)NC3=O)NC1=O)CCCN2C(C)=O (stereo partly drawn) [I-193, Ac-PL3-Asp-Ile-B5-Asp-Glu-Ala-Ala-Phe-Gln-S8-Phe-Trp-NH2]"
,105 nM,1010 nM,,2.33,"CC[C@H](C)[C@@H]1NC(=O)[C@H](CC(=O)O)NC(=O)[C@]2(CC=CCCCC3(CCCC=CCCCCCC[C@@](C)(C(=O)N[C@@H](Cc4ccccc4)C(=O)N[C@@H](Cc4c[nH]c5ccccc45)C(=O)N[C@@H](C)C(N)=O)NC(=O)[C@H](CCC(N)=O)NC(=O)[C@H](Cc4ccccc4)NC(=O)[C@H](C)NC(=O)[C@H](C)NC(=O)[C@H](CCC(=O)O)NC(=O)[C@H](CC(=O)O)NC3=O)NC1=O)CCCN2C(C)=O (stereo partly drawn) [I-194, Ac-PL3-Asp-Ile-B5-Asp-Glu-Ala-Ala-Phe-Gln-S8-Phe-Trp-Ala-NH2]"
,40 nM,130 nM,,2,"CC(=O)N1CCC[C@]12CC=CCCCC1(CCCC=CCCCCCC[C@@](C)(C(=O)N[C@@H](Cc3ccccc3)C(=O)N[C@@H](Cc3csc4ccccc34)C(=O)N[C@@H](CCC(N)=O)C(N)=O)NC(=O)[C@H](CCC(N)=O)NC(=O)[C@H](Cc3ccccc3)NC(=O)[C@H](C)NC(=O)[C@H](C)NC(=O)[C@H](CC(=O)O)NC(=O)[C@H](CC(=O)O)NC1=O)NC(=O)[C@H](C)NC(=O)[C@H](CC(=O)O)NC2=O (stereo partly drawn) [I-294, Ac-PL3-Asp-Ala-B5-Asp-Asp-Ala-Ala-Phe-Gln-S8-Phe-BztA-Gln-NH2]"
1.913,152 nM,1630 nM,1630 nM,,"CC(=O)N1CCC[C@]12CC=CCCCC1(CCCC=CCCCCCC[C@@](C)(C(=O)N[C@@H](Cc3ccccc3)C(=O)N[C@@H](Cc3c[nH]c4ccccc34)C(=O)N[C@@H](Cc3c[nH]cn3)C(N)=O)NC(=O)[C@H](CCC(N)=O)NC(=O)[C@H](Cc3ccccc3)NC(=O)[C@H](C)NC(=O)[C@H](C)NC(=O)[C@H](CCC(=O)O)NC(=O)[C@H](CC(=O)O)NC1=O)NC(=O)[C@H](C)NC(=O)[C@H](CC(=O)O)NC2=O (stereo partly drawn) [I-178, Ac-PL3-Asp-Ala-B5-Asp-Glu-Ala-Ala-Phe-Gln-S8-Phe-Trp-His-NH2]"
,136 nM,3980 nM,,1.91,"CC(=O)N1CCC[C@]12CC=CCCCC1(CCCC=CCCCCCC[C@@](C)(C(=O)N[C@@H](Cc3ccccc3)C(=O)N[C@@H](Cc3c[nH]c4ccccc34)C(=O)N[C@@H](C)C(N)=O)NC(=O)[C@H](CCC(N)=O)NC(=O)[C@H](Cc3ccccc3)NC(=O)[C@H](C)NC(=O)[C@H](C)NC(=O)[C@H](CC(=O)O)NC(=O)[C@H](CC(=O)O)NC1=O)NC(=O)[C@H](C)NC(=O)[C@H](CC(=O)O)NC2=O (stereo partly drawn) [I-316, Ac-PL3-Asp-Ala-B5-Asp-Asp-Ala-Ala-Phe-Gln-S8-Phe-Trp-Ala-NH2]"
,1180 nM,5000 nM,,2.66,"CC(=O)N1CCC[C@]12CC=CCCCC1(CCCC=CCCCCCC[C@@](C)(C(=O)N[C@@H](Cc3ccccc3)C(=O)N[C@@H](Cc3csc4ccccc34)C(=O)N[C@@H](CCC(N)=O)C(N)=O)NC(=O)[C@H](CCC(N)=O)NC(=O)[C@H](Cc3ccccc3)NC(=O)[C@H](C)NC(=O)[C@H](C)NC(=O)[C@H](Cc3ccc4ccccc4c3)NC(=O)[C@H](CC(=O)O)NC1=O)NC(=O)[C@H](C)NC(=O)[C@H](CC(=O)O)NC2=O (stereo partly drawn) [I-295, Ac-PL3-Asp-Ala-B5-Asp-2NapA-Ala-Ala-Phe-Gln-S8-Phe-BztA-Gln-NH2]"
2.054,143 nM,1750 nM,1750 nM,,"CC(=O)N1CCC[C@]12CC=CCCCC1(CCCC=CCCCCCC[C@@](C)(C(=O)N[C@@H](Cc3ccccc3)C(=O)N[C@@H](Cc3c[nH]c4ccccc34)C(=O)N[C@@H](CCC(N)=O)C(N)=O)NC(=O)[C@H](C(C)C)NC(=O)[C@H](Cc3cccc(C)c3)NC(=O)[C@H](C)NC(=O)[C@H](C)NC(=O)[C@H](CCC(=O)O)NC(=O)[C@H](CC(=O)O)NC1=O)NC(=O)[C@H](C)NC(=O)[C@H](CC(=O)O)NC2=O (stereo partly drawn) [I-207, Ac-PL3-Asp-Ala-B5-Asp-Glu-Ala-Ala-3MeF-Val-S8-Phe-Trp-Gln-NH2]"
